Read-outs that look alike come from different tables or passages of the source. Marks after values point to notes of the source that are not given here.
How the values were obtained:
MtInhA [1] = biological target: T1, MtInhA (Mycobacterium tuberculosis, UniProt P9WGR1); assay: MtInhA enzyme inhibition by steady-state kinetics (NADH oxidation at 340 nm); assay type: biochemical; details: for inhibitory activity towards MtInhA: IC50 screening; for mode of inhibition with respect to NADH / mode of inhibition with respect to DD-CoA: Lineweaver-Burk plot; for IC50: NADH 60 μM, DD-CoA 45 μM, 25 °C, Pipes pH 7.0, read-out: IC50; for Ki: EI complex; for Ki DD-CoA Kii / Ki NADH Kii: ESI complex
T1 construct: made in house
Protocol: In order to assess the relative potency of the compounds, inhibition studies were performed by steady-state kinetic studies using a UV-2550 UV/Visible spectrophotometer (Shimadzu^©), monitoring the NADH oxidation at 340 nm (εβ-NADH = […]), in the forward direction. Experiments were performed at 25 °C, in 100 mM Pipes pH 7.0 and were started with the addition of the 2.2 μM MtInhA to a total reaction volume of 500 μL, and monitoring the change in absorbance for 1 min. […] This is needed as IC50 and classical competitive, non-competitive and uncompetitive inhibition modes follow a rapid equilibrium process. Accordingly, MtInhA (2.2 μM) was pre-incubated with inhibitor (10 μM), aliquots were taken at different times and added to the reaction mixture containing NADH (60 μM) and DD-CoA (45 μM), and initial velocity measurements were plotted as a function of time of pre-incubation[6]. Control experiments were carried out pre-incubating MtInhA (2.2 μM) with DMSO (5%) in the absence of inhibitors, and initial velocity measured as a function of time of pre-incubation[6].
The IC50 value, which defines the concentration of inhibitor required to […], was calculated for each compound. The maximal rate for the enzyme reaction was determined in the absence of inhibitor, in the presence of fixed non-saturating concentration of NADH (60 μM ≅ Km) and DD-CoA (45 μM ≅ Km)[10][11][14]. The reaction velocity was analyzed as the percentage of inhibition as a function of inhibitor concentration and data were fitted to Eq 1.
The most promising compounds were further evaluated to assess the inhibition profile and to determine the inhibition constant (Ki). Initial rates were measured as a function of NADH concentration (10–160 μM) at fixed non-saturating DD-CoA concentration (45 μM) and fixed-varied inhibitor concentrations (0.5–120 μM). The Ki values towards NADH were calculated using the uncompetitive equation (Eq. 2) for compounds Labio_6 and Labio_16, in which [I] is the inhibitor concentration, [S] is the substrate concentration, Km and Vmax are, respectively, the Michaelis-Menten constant and maximum velocity, and Kii is the overall inhibition constant for the ESI complex. The Ki of Labio_03 was determined previously.
For compounds Labio_2, Labio_11, Labio_15 and Labio_17, the Ki values with respect to NADH were calculated using Eq. 3, which describes a non-competitive inhibition, where [I] is the inhibitor concentration, [S] is the substrate concentration, Km and Vmax are, respectively, the Michaelis-Menten constant and maximum velocity, Kii is the overall inhibition constant for the ESI complex and Kis is the overall inhibition constant for the EI complex.
Inhibition studies were also carried out in the presence of fixed non-saturating concentration of NADH (60 μM) and fixed-varied inhibitor concentrations (0.5–120 μM), when DD-CoA was the variable substrate (15–135 μM). For compounds Labio_2, Labio_6, and Labio_16, the inhibition constants for the DD-CoA substrate were determined using Eq. 3 for the non-competitive mode of inhibition. For compounds Labio_11, Labio_15 and Labio_17, the Ki for this substrate were calculated from data fitting to the equation for competitive inhibition (Eq. 4), in which [I] is the inhibitor concentration, [S] is the substrate concentration, Km and Vmax are, respectively, the Michaelis-Menten constant and maximum velocity, and Kis is the overall inhibition constant for the EI complex.

M. tuberculosis H37Rv = assay: microbe, parasite or virus in culture; assay type: cell-based; details: Mycobacterium tuberculosis, 216 h, 7 days + 48 h resazurin, read-out: MIC H37Rv
[2] = biological target: T2, MtInhA:NADH binary complex (Mycobacterium tuberculosis, UniProt P9WGR1); assay: biochemical; assay type: binding; details: for Kd: 25 °C (298.15 K); for ΔG: estimated from ΔH and ΔS (Eq. 7); for ΔH / ΔS: van't Hoff analysis, 15–30 °C
T2 construct: made in house

MtInhA [3] = biological target: T1, MtInhA; design: method as in PMID 23889525; details: ESI complex; determined previously ref 12; cited from earlier work
[4] = system: M. tuberculosis H37Rv in infected RAW 264.7 macrophages; assay: Intracellular activity in M. tuberculosis-infected macrophages (CFU); assay type: cell-based, Mycobacterium tuberculosis; details: 5 μM; for decrease in CFU counts compared to early control / decrease in CFU counts compared to untreated late control: 5 days; for Mean log CFU/well ± SEM: 5 days of incubation
[5] = varied DD-CoA 15–135 μM, fixed NADH 60 μM, read-out: Ki DD-CoA Kis
[6] = varied DD-CoA 15–135 μM, fixed NADH 60 μM
[7] = varied NADH 10–160 μM, fixed DD-CoA 45 μM
[8] = varied NADH 10–160 μM, fixed DD-CoA 45 μM, read-out: Ki NADH Kis

T1 sequence (P9WGR1 whole entry, looked up): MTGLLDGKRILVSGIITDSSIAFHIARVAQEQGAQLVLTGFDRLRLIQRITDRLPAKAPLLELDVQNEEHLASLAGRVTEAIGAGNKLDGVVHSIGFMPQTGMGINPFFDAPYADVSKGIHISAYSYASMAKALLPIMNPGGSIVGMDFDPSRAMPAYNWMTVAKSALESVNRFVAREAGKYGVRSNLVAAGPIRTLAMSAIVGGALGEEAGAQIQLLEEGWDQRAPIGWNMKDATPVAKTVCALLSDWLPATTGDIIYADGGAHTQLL
T2 sequence (P9WGR1 whole entry, looked up, one chain of several): as the sequence (P9WGR1 whole entry, looked up) above

SMILES	inhibitory activity towards MtInhA (MtInhA [1])	MIC (M. tuberculosis H37Rv)	mode of inhibition with respect to NADH (MtInhA [1]; fixed DD-CoA 45 μM)	mode of inhibition with respect to DD-CoA (MtInhA [1]; fixed NADH 60 μM)	IC50 (MtInhA [1])	Kd [2]	ΔG [2]	ΔH [2]	ΔS [2]	also measured
O=C(CNC(=O)c1ccc2c(c1)OCO2)Nc1ccc(Nc2ccccc2)cc1 [Labio_12]	no inhibitory activity	> 100 µg/mL								
COc1ccc(CCC(=O)Nc2nn3cc(-c4ccccc4)nc3s2)cc1 [Labio_6]		> 10 µg/mL	uncompetitive	non-competitive	9.8 ± 0.9 µM	3.1 ± 0.4 µM	-7.6 ± 0.7 kcal/mol	-44.7 ± 3.6 kcal/mol	−124.2 ± 12.3 cal.mol^−1.K^−1	Ki (MtInhA [1]; [5]): 0.7 ± 0.2 µM; Ki DD-CoA Kii (MtInhA [1]; [6]): 0.7 ± 0.1 µM; Ki NADH Kii (MtInhA [1]; [7]): 1.8 ± 0.2 µM
CCN(CC)Cc1cc(-c2ccnc3cc(Cl)ccc23)ccc1O [Labio_15]		25 µg/mL	non-competitive	competitive	83 ± 2 µM	29.4 ± 2.1 µM	-6.2 ± 1.5 kcal/mol	-9.6 ± 0.8 kcal/mol	−11.5 ± 2.8 cal.mol^−1.K^−1	Ki (MtInhA [1]; [5]): 74 ± 8 µM; Ki (MtInhA [1]; [8]): 110 ± 26 µM; Ki NADH Kii (MtInhA [1]; [7]): 110 ± 11 µM
CCCOc1ccc(-c2nnc(NC(=O)Nc3ccccc3C)s2)cc1 [Labio_3]		11.2 µg/mL	uncompetitive	uncompetitive	19 ± 2 µM	4.4 ± 0.4 µM	-7.4 ± 0.7 kcal/mol	-27.8 ± 1.8 kcal/mol	−68.5 ± 6.3 cal.mol^−1.K^−1	Ki DD-CoA Kii (MtInhA [3]): 20 ± 2 µM; Ki NADH Kii (MtInhA [3]): 24 ± 3 µM
O=C(Cc1csc(-c2ccccn2)n1)Nc1ccccc1Oc1ccccc1 [Labio_1]	no inhibitory activity	> 10 µg/mL								
Cc1ccc(N2C[C@@H](c3nc(-c4ccc(OC(C)C)cc4)no3)CC2=O)c(C)c1 [Labio_13]	no inhibitory activity	> 10 µg/mL								
Cc1nc([C@H](C)NC(=O)c2ccc3oc(Cc4ccccc4F)nc3c2)cs1 [Labio_2]		> 100 µg/mL	non-competitive	non-competitive	18 ± 2 µM	2.2 ± 0.2 µM	-7.7 ± 0.7 kcal/mol	-37.7 ± 2.7 kcal/mol	−100.5 ± 9.2 cal.mol^−1.K^−1	Ki (MtInhA [1]; [5]): 0.7 ± 0.4 µM; Ki DD-CoA Kii (MtInhA [1]; [6]): 0.7 ± 0.2 µM; Ki (MtInhA [1]; [8]): 2.3 ± 0.8 µM; Ki NADH Kii (MtInhA [1]; [7]): 2.2 ± 0.6 µM
Cc1cc(NC(=O)Cc2csc(-c3ccsc3)n2)ccc1Br [Labio_9]	no inhibitory activity	> 10 µg/mL								
COc1ccc(-c2n[nH]cc2/C=N\NC(=O)c2cc(C)nc3c(C)cccc23)cc1 [Labio_11]		> 100 µg/mL	non-competitive	competitive	87 ± 3 µM	17.9 ± 1.1 µM	-6.5 ± 0.9 kcal/mol	-18.7 ± 1.7 kcal/mol	−40.9 ± 5.9 cal.mol^−1.K^−1	Ki (MtInhA [1]; [5]): 27 ± 3 µM; Ki (MtInhA [1]; [8]): 44 ± 14 µM; Ki NADH Kii (MtInhA [1]; [7]): 41 ± 6 µM
CO[C@H]1/C=C/O[C@@]2(C)Oc3c(C)c(O)c4c(O)c(c(/C=N/N5CCN(C)CC5)c(O)c4c3C2=O)NC(=O)/C(C)=C\C=C\[C@H](C)[C@H](O)[C@@H](C)[C@@H](O)[C@@H](C)[C@H](OC(C)=O)[C@@H]1C [Rifampin]										decrease in CFU counts compared to early control [4]: 1.7 log10; decrease in CFU counts compared to untreated late control [4]: 2.3 log10; Mean log CFU/well ± SEM [4]: 2.4 ± 0.1***^+++ log CFU/well
Cc1cccc(NC(=O)/C(C#N)=C/c2ccc(OCc3ccccc3)cc2)n1 [Labio_7]	no inhibitory activity	> 10 µg/mL								
NNC(=O)c1ccncc1 [INH, Isoniazid]		0.31 µg/mL								decrease in CFU counts compared to early control [4]: 1.7 log10; decrease in CFU counts compared to untreated late control [4]: 2.3 log10; Mean log CFU/well ± SEM [4]: 2.4 ± 0.1***^+++ log CFU/well
COc1cccc(-c2cccc(NC(=O)C3CCN(CC=C(C)C)CC3)c2)c1 [Labio_20]	no inhibitory activity	23.8 µg/mL								
Cc1ccc(N2C[C@@H](c3nc(-c4ccc(OC(C)C)cc4)no3)CC2=O)cc1C [Labio_8]	no inhibitory activity	> 10 µg/mL								
